Source: patent US8999962B2, “Method for increasing bone density and/or reducing any osteochondral defects in an animal and a composition including vitamin K” (priority 2008, dated 2015)

How the values were obtained:
[1] = Degradation of K1 by sunlight; format: physicochemical; conditions: after 4 hours exposure to bright sunlight
Procedure: Degradation of K1 begins rapidly as soon as photosynthesis ceases and the rate of degradation is directly related to the intensity of UVB. Pure K1 in solution is denatured in 20 minutes in direct sunlight. […] Aside from the degradation of K1, a further problem herbivores have is that the concentration of other fat soluble nutrients such as lutein in green vegetation may be up to 100 times higher than the concentration of vitamin K1. Lutein competes with the absorption and metabolism of vitamin K1 (see Mitchell G. V, Cook K. K., Jenkins M. Y, Grundel E International Journal of Vitamin and Nutrition Research 2001, 71: 30) as well as high levels of Vitamin E (see Tovar A, Ameho C. K. Blumberg J. B., Peterson J. W, Smith D, Booth S. Nutrition And Metabolism 2006, 3:29) and therefore with the combination of UV, the plant matrix and competition with other fat soluble vitamins, the actual amount of vitamin K1 available is much less than quoted or expected. It follows that the vitamin K requirement for animals and humans has been grossly underestimated resulting in vitamin K deficiency.
It is known that Vitamin K1 (K1) is rapidly degraded by sunlight (UV). For vitamin K1 to be a stable component of a vitamin product, it is necessary to protect it using physical and/or chemical means. It was shown that a loss of approximately 20% of K1 occurred after 4 hours exposure to bright sunlight.

[2] = pure K1 in solution, direct sunlight; cited from earlier work
[3] = of the apparent concentration in the leaf, cited from earlier work

loss of K1 [1]: approximately 20%
SMILES: CC1=C(C/C=C(\C)CCC[C@H](C)CCC[C@H](C)CCCC(C)C)C(=O)c2ccccc2C1=O [Example K1, Phylloquinone]
time in which pure K1 is denatured [2]: 20 min
natural bioavailability when consumed with fat ([3]; consumed with fat): 15-16%
natural bioavailability [3]: 8-10%
